In patent US7192979B2, “EP4 receptor selective agonist in the treatment of osteoporosis” (Pfizer Inc., priority 2000, dated 2007):

How the values were obtained:
[1] = system: 293S cells transfected with EP2; assay: Kidney regeneration assay: induction of BMP-7 expression (Northern blot) in EP2 293S cells; assay type: cell-based, human; conditions: 10^-6M, RNA at 8, 16 and 24 hours, time dependent
Method: (§1) The role of a prostaglandin agonist in kidney regeneration is investigated by the ability of Prostaglandin E2 (PGE2) or a prostaglandin agonist to induce the expression of Bone Morphogenetic Protein 7 (BMP-7) in wild type 293S cells and in 293S cells transfected with EP2.
(§2) Methods: 293S and EP2 293S cells are grown in Dulbecco's Modified Egale medium (DMEM, Gibco, BRL; Gaithersburg, Md.). One day prior to treatment with PGE2 or a prostaglandin agonist, cells are plated at a density of 1.5×10^6 cells/10 cm dish. Generally about 16 to 24 hours later the cell monolayer is washed once with OptiMEM (Gibco, BRL; Gaithersburg, Md.) followed by the addition of 10 ml OptiMEM/dish in the presence and absense of vehicle (DMSO), PGE2 (10^−6M) or a prostaglandin agonist (10^−6M). Cells are harvested and RNA is extracted at 8, 16 and 24 hours. Northern blot analysis of total RNA ([…]) is carried out by probing the blots with ^32P-labeled BMP-7 probe. The blots are normalized for RNA loading by hybridization with ^32P-labeled 18s ribosomal RNA probe. […] Given the known role of BMP-7 in kidney regeneration and the ability of an prostaglandin agonist to induce BMP-7 expression in 293S kidney cells in a time and receptor specific manner indicates a role for prostaglandin agonist in kidney regeneration.

wild type 293S cells = assay: Kidney regeneration assay: induction of BMP-7 expression (Northern blot) in wild type 293S cells; assay type: cell-based, human; conditions: parental (wild type) 293S cell line; 10^-6M; 8, 16 and 24 hours
Method: as §1, §2

[2] = system: ovariectomized (OVX) rat model; conditions: model for postmenopausal osteoporosis, Ke et al., Bone 23:249-255, 1998; cited from earlier work

Which “expression of Bone Morphogenetic Protein 7 (BMP-7)” value [1] does the source give for `CCCCC[C@H](O)/C=C/[C@H]1[C@H](O)CC(=O)[C@@H]1C/C=C\CCCC(=O)O` [PGE2, prostaglandin E2] here?
Its value is “induce the expression of BMP-7”.

What about the “expression of Bone Morphogenetic Protein 7 (BMP-7)” value (wild type 293S cells) of the same compound?
Its value is “generally not observed”.

What about the “restoration of lost bone” value [2] of the same compound?
The value was “can restore lost bone”.
